The text below walks through data of paper PMC11694514, “Structural and kinetic characterization of DUSP5 with a Di-phosphorylated tripeptide substrate from the ERK activation loop” (Frontiers in chemical biology, 2024).

Where two headings read alike, the source gives them in different places. Where a SMILES comes first, the peptide text is derived from it. [ ]: non-standard residue; d: D form. pY = N[C@@H](Cc1ccc(OP(=O)(O)O)cc1)C(=O)O; pT = C[C@@H](OP(=O)(O)O)[C@H](N)C(=O)O

For experiment [1], the target named is T1, DUSP5pdWT (Homo sapiens, UniProt Q16690).
T1 sequence (Q16690 178-319 limits assumed): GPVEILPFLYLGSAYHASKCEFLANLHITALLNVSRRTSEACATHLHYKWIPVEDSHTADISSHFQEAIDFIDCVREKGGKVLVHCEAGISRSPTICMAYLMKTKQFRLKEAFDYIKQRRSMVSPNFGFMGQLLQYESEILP
In words: Steady state inhibition of pNPP hydrolysis by tripeptides. Format: biochemical. On the set-up: The Dusp5 phosphatase domain gene, both wild type (WT; DUSP5pdWT; used for kinetic studies); inferred from the Nickel NTA purification), with additional N-terminal amino acids (N); made in house. Conditions: for Ki: peptide as inhibitor of pNPP hydrolysis.

Experiment [2] deals with T1, DUSP5pdWT. In words: Steady state inhibition of pNPP hydrolysis by vanadate and phosphate. To be noted: for inhibition pattern / Ki (Kis): pNPP substrate; for Ki (Kis): Tris pH 7.5, 0.045 mM DTT, global kinetics analysis.
Method: All assays were carried out using pNPP as a substrate in the presence of DTT using a microplate reader and a total volume of 100 μL. Each assay contained an enzyme concentration of approximately 0.072 mg/mL (appropriately 3.13 μM DUSP5pdWT) which was left in a stock solution at about 1 h at 4°C before use. Each assay consisted of a reaction mixture in 100 mM tris-hydrochloride buffer containing 100 mM NaCl and 5.0 mM magnesium chloride (MgCl2) at pH 7.5. […] The kinetic parameters were measured in the presence of 0.045 mM DTT in the assay solution and the assay was started with the addition of pNPP.
For phosphate inhibition studies, the phosphate inhibitor concentrations used were 0.5; 1; 2; 5; 10 mM. […] The kinetic runs were repeated three times and the data were initial processed using excel and the global kinetics analysis was performed using GraphPad Prism 10.1.2. The errors provided in the analysis were calculated by the program.
In a further experiment the target is T2, DUSPpdWT (Homo sapiens, UniProt Q16690).
T2 construct: The Dusp5 phosphatase domain gene, both wild type (WT; DUSP5pdWT; used for kinetic studies); inferred from the Nickel NTA purification), with additional N-terminal amino acids (N); made in house
T2 sequence (Q16690 178-319 limits assumed): T1 sequence (Q16690 178-319 limits assumed)
In words: 31P NMR monitoring of tripeptide hydrolysis. Format: biochemical. Here is the method: Hydrolysis of the pThr-Glu-pTyr peptide was monitored using ^31P 1D NMR and a Varian 500 MHz spectrometer equipped with a broad band probe. 1 mM of peptide was incubated with 100 μM of DUSPpdWT protein for 3 min, and spectra were collected at 25°C. See Figure 2 and, for a time course, Supplementary Figure S3.

The target of experiment [3] is Bovine Low Molecular Weight Phosphotyrosyl Phosphatase. On the set-up: method as in Zhang et al. (1997). To be noted: Bovine heart, substrate PNPP, Sodium acetate, ref Zhang et al. (1997), cited from earlier work.
The target of experiment [4] is Acid phosphatases (Bovine liver). On the set-up: method as in Lawrence and Van Etten (1981). Conditions: pH 5.5, substrate PNPP, Sodium acetate, ref Lawrence and Van Etten (1981); cited from earlier work.
The target of a further experiment is PTP1B. To be noted: cited from earlier work.
The target in experiment [5] is SHP-1 (domain containing protein tyrosine phosphatase-1). Conditions: pH 7.5; substrate PNPP; Tris; ref Heo et al. (2002); cited from earlier work.
Experiment [6] deals with Bacteriophage λ protein phosphatase. To be noted: pH 7.8; substrate PNPP; Tris; ref Reiter et al. (2001); cited from earlier work.
For the next experiment, the target named is PTPase. Conditions: substrate PNPP, ref Deng et al. (2002), cited from earlier work.
For experiment [7], the target named is Human prostatic acid phosphatase. Conditions: pH 5.0; substrate PNPP; Sodium acetate; ref Zhou et al. (1993); cited from earlier work.
Experiment [8] concerns the target Phosphotyrosyl protein phosphatases. To be noted: pH 5.0; substrate PNPP; Sodium acetate; ref Zhou et al. (1993); cited from earlier work.
The mark [9] stands for this setting: Ki, global competitive model, Lineweaver-Burk fit (equation S2).
[10] abbreviates: Ki, global competitive model, Michaelis-Menten fit (Eq. 2).

For `CC(=O)N[C@H](C(=O)N[C@@H](CCC(=O)O)C(=O)N[C@@H](Cc1ccc(OP(=O)(O)O)cc1)C(N)=O)[C@@H](C)O` [T-E-pY] (Ac-Thr-Glu-[pY]-NH2), the Ki (usually the equilibrium dissociation constant of an inhibitor or competing ligand from its target) on DUSP5pdWT [1] (setting [9]) was 4.8 mM; at DUSP5pdWT [1] (setting [10]), 4.93 mM.
Regarding `O=[N+]([O-])c1ccc(OP(=O)(O)O)cc1` [pNPP, p-nitrophenol phosphate], the Michaelis constant (Km) (as a rule, the substrate concentration at which the rate is half of its maximum) at DUSP5pdWT [2] (pH 7.5) came out at 8.02 mM.
For the compound `CC(=O)N[C@H](C(=O)N[C@@H](CCC(=O)O)C(=O)N[C@@H](Cc1ccc(O)cc1)C(N)=O)[C@@H](C)OP(=O)(O)O` [pT-E-Y] (Ac-[pT]-Glu-Tyr-NH2), the inhibitory constant (Ki) on DUSP5pdWT [1] (global competitive model, Lineweaver-Burk fit (equation S2), read-out: Ki) came to 21.9 mM; at DUSP5pdWT [1] (global competitive model, Michaelis-Menten fit (Eq. 2), read-out: Ki) it was 15.8 mM.
As for `CC(=O)N[C@H](C(=O)N[C@@H](CCC(=O)O)C(=O)N[C@@H](Cc1ccc(OP(=O)(O)O)cc1)C(N)=O)[C@@H](C)OP(=O)(O)O` [pT-E-pY, Ac-pThr-Glu-pTyr-NH2] (Ac-[pT]-Glu-[pY]-NH2), the Ki was determined as 1.22 mM at DUSP5pdWT [1] (setting [9]) and 1.67 mM at DUSP5pdWT [1] (setting [10]). Further, the kcat on DUSP5pdWT [1] (pNPP substrate, peptide as inhibitor, global competitive model, Michaelis-Menten fit (Eq. 2)) was 2.03 ± 0.07 × 10^−2 s^−1. Besides, on DUSP5pdWT [1] (relative to the pY monophosphorylated peptide), the “fold more potent binder” value was “roughly 3 x”. Moreover, the “conversion to orthophosphate (both phosphates cleaved)” value on DUSPpdWT (1 mM peptide, 100 μM DUSP5pdWT, 3 min, 25°C) worked out at 100%. On DUSPpdWT (10-fold lower enzyme concentration, even after prolonged incubation), the “pT and pY peptides remaining (each)” value is listed as “about 25%”. Further, the conversion entry at DUSPpdWT (10-fold lower enzyme concentration, first timepoint after 3 min incubation) is “about 50%”.
Turning to `O=P(O)(O)O` [phosphate, sodium phosphate], the Ki in experiment [3] (pH 5.0) was 2.2 ± 0.0004 mM; in experiment [3] (pH 7.5) it was 6.2 mM; in experiment [4] it was 3 mM; on PTP1B (pH 7.0, substrate PNPP, 3,3-Dimethylglutarate, ref Zhang, Y.L. and Zhang, Z.Y. (1998)), 17000 µM. For the same compound, the inhibition pattern entry at DUSP5pdWT [2] is recorded as “competitive inhibitors”; on DUSP5pdWT [2] (listed as Phosphate), “competitive inhibition pattern”. Moreover, the “Ki (Kis)” value amounted to 17.3 mM on DUSP5pdWT [2] (listed as Phosphate) and 17.32 mM on DUSP5pdWT [2] (listed as sodium phosphate).
For the compound sodium vanadate, the Ki is 0.0054 mM in experiment [3] (pH 5.0); 0.001 mM in experiment [3] (pH 7.5); 9.3 µM in experiment [5]; 700 nM in experiment [6]; 2 mM in experiment [4]; 1100 nM at PTPase (pH 5.5, Acetate). In addition, the inhibition constant (Ki) on PTPase (pH 7.5, Tris) is 1200 nM; at PTP1B (pH 5.5, substrate PNPP, Tris, ref Heo et al. (2002)), 410 µM; on PTP1B (pH 7.3, substrate FDP, HEPES, ref Huyer et al. (1997)), 0.38 µM; on PTP1B (pH 7.5, substrate PNPP, Tris, ref Heo et al. (2002)) it was 5.6 µM; in experiment [7], 36 µM; in experiment [8] it was 24 µM. Further, the inhibition pattern entry against DUSP5pdWT [2] is reported as “competitive inhibitors”.
